Experimental findings from BindingDB's records for doi:10.1021/acs.jmedchem.6b01851 (Amgen, 2017) are described below.

The target in the assay is Sodium channel protein type 5 subunit alpha (Homo sapiens, UniProt Q14524). Nature of the assay: Inhibition of human Nav1.5 expressed in HEK293 cells assessed as reduction in peak inward current by ionworks quattro electrophysiology assay.
Sequence of Sodium channel protein type 5 subunit alpha (Q14524 whole entry): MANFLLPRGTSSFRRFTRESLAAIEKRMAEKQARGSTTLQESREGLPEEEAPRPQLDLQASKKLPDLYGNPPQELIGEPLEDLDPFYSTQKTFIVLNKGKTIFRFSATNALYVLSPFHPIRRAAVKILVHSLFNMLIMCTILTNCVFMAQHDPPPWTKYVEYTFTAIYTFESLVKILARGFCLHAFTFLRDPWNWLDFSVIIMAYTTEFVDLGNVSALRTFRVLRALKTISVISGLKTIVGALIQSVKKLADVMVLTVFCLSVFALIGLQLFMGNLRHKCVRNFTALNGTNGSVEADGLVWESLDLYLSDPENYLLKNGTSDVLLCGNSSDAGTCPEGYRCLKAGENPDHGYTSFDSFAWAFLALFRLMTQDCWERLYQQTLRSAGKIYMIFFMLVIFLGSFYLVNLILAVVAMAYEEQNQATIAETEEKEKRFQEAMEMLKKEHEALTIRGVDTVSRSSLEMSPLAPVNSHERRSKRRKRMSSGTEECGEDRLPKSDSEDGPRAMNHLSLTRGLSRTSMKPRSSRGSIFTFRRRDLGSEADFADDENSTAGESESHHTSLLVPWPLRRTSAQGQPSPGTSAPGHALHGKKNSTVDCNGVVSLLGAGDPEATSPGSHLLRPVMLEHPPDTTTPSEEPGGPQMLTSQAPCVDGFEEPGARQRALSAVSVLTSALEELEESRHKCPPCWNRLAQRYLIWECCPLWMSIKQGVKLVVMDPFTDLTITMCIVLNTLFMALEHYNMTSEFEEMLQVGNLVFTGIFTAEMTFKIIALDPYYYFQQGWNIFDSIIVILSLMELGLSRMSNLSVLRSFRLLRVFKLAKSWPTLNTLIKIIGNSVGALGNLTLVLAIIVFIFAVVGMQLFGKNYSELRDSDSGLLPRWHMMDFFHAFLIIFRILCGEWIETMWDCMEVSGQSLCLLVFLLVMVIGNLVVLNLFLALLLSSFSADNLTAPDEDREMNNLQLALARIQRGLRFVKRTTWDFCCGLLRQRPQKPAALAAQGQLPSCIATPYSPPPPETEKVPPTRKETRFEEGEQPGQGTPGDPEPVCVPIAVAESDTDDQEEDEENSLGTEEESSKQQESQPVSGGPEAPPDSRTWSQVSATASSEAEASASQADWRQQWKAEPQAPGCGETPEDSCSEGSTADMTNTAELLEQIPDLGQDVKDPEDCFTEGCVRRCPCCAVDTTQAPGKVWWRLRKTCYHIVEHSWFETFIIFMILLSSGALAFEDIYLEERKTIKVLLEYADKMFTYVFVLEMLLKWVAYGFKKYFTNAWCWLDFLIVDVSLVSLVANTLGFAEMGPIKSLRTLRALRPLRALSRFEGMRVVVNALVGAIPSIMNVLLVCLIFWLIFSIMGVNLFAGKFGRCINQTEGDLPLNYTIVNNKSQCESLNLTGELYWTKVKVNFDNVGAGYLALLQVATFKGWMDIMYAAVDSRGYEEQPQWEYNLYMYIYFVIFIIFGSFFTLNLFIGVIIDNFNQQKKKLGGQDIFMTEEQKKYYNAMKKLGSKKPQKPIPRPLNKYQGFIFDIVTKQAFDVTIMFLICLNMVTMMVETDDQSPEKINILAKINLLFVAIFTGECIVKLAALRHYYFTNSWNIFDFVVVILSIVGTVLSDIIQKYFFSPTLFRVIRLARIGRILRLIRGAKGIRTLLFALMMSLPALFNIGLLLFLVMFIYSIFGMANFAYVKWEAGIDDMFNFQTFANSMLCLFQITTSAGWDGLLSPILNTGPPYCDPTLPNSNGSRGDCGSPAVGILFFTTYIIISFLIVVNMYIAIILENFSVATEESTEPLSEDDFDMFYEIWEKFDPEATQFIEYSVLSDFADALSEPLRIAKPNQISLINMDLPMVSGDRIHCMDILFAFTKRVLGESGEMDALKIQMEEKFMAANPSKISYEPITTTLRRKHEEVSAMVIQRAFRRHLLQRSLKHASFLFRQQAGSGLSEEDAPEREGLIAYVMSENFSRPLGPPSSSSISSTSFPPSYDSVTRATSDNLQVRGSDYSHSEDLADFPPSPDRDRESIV

In the case of `COc1cc(-c2cccc(F)c2)c(Cl)cc1-c1ncc(O)c2cc(S(=O)(=O)Nc3ccon3)ccc12` [1-(2-chloro-3'-fluoro-5-methoxy-4-biphenylyl)-4-hydroxy-N-3-isoxazolyl-6-isoquinolinesulfonamide], the IC50 – broadly, the concentration that gives 50% inhibition – was more than 10 µM. Next, `COc1cc(-c2cccc(F)c2)c(Cl)cc1-c1nccc2cc(S(=O)(=O)Nc3ncon3)ccc12` [1-(2-chloro-3'-fluoro-5-methoxy-4-biphenylyl)-N-1,2,4-oxadiazol-3-yl-6-isoquinolinesulfonamide]: more than 10 µM; `COc1cc(-c2cccc(F)c2)c(Cl)cc1-c1nn(C)c(=O)c2cc(S(=O)(=O)Nc3ccon3)ccc12` [1-(2-chloro-3'-fluoro-5-methoxy-4-biphenylyl)-N-3-isoxazolyl-3-methyl-4-oxo-3,4-dihydro-6-phthalazinesulfonamide]: more than 10 µM; `COc1cc(-c2cccc(F)c2)c(Cl)cc1-c1nccc2cc(S(=O)(=O)Nc3cccnn3)ccc12` [1-(2-chloro-3'-fluoro-5-methoxy-4-biphenylyl)-N-3-pyridazinyl-6-isoquinolinesulfonamide]: more than 10 µM. Next, `COc1cc(-c2cccc(Cl)c2)c(F)cc1-c1nccc2cc(S(=O)(=O)Nc3ccon3)ccc12` [1-(3'-chloro-2-fluoro-5-methoxy-4-biphenylyl)-N-3-isoxazolyl-6-isoquinolinesulfonamide]: more than 10 µM. Next, `COc1cc(-c2cccc(F)c2)c(Cl)cc1-c1ncnc2cc(S(=O)(=O)Nc3ccon3)ccc12` [4-(2-chloro-3'-fluoro-5-methoxy-4-biphenylyl)-N-3-isoxazolyl-7-quinazolinesulfonamide]: more than 10 µM.
